Laboratory results published in BindingDB's records for doi:10.1111/j.1747-0285.2007.00590.x (2007).

Legend:
[1] = target: T1, Hyaluronidase-1 (Homo sapiens, UniProt Q12794); test: Morgan-Elson Assay; details: pH 3.5; 37 °C
T1 sequence (Q12794 whole entry): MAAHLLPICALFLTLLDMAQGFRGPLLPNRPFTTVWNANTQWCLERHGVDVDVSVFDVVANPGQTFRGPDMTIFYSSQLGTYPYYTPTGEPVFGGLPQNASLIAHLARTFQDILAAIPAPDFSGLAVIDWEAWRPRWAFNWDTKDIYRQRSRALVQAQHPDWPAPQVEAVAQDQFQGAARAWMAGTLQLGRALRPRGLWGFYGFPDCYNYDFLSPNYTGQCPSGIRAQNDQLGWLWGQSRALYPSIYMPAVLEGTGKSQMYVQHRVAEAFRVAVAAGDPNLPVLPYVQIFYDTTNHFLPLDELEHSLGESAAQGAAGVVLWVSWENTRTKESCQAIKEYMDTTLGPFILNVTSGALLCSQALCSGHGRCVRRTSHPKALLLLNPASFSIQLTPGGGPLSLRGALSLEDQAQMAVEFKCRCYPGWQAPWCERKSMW
From the text: Morgan-elson assay were used to test inhibitors at pH of 3.5.

[2] = target: T1, Hyaluronidase-1; test: Stains-all Assay; details: pH 7; 37 °C
From the text: Stains-all assay were used to test inhibitors at pH of 7.

`O=C(NCc1ccccc1)c1cc2ccccc2n1Cc1ccccc1` [N-Substituted indole-2- and 3-carboxamide derivative, 1] showed an IC50 [1] of 78.2 µM and an IC50 [2] of 40.3 µM.
`O=C(NCc1ccc(Cl)cc1)c1cc2ccccc2n1Cc1ccccc1` [N-Substituted indole-2- and 3-carboxamide derivative, 2] gave an IC50 [1] of 64.3 µM and an IC50 [2] of 33.2 µM.
Compound `O=C(NCc1ccc(F)cc1)c1cc2ccccc2n1Cc1ccccc1` [N-Substituted indole-2- and 3-carboxamide derivative, 3] has an IC50 [2] of 27.2 µM.
In the case of `O=C(NCc1ccccc1)c1cc2ccccc2n1Cc1ccc(F)cc1` [N-Substituted indole-2- and 3-carboxamide derivative, 6], the IC50 [2] is reported as 41.1 µM.
Compound `O=C(NCc1ccc(Cl)cc1)c1cc2ccccc2n1Cc1ccc(F)cc1` [N-Substituted indole-2- and 3-carboxamide derivative, 7] has an IC50 [2] of 33 µM.
`O=C(NCc1ccc(F)cc1)c1cc2ccccc2n1Cc1ccc(F)cc1` [N-Substituted indole-2- and 3-carboxamide derivative, 8] gave an IC50 [2] of 29.9 µM.
`O=C(NCc1ccccc1)c1cn(Cc2ccc(F)cc2)c2ccccc12` [N-Substituted indole-2- and 3-carboxamide derivative, 16] was tested, and the IC50 [1] was 61.6 µM and the IC50 [2] was 33 µM.
`O=C(NCc1ccc(Cl)cc1)c1cn(Cc2ccc(F)cc2)c2ccccc12` [N-Substituted indole-2- and 3-carboxamide derivative, 17] was tested, and the IC50 [1] was 72.9 µM and the IC50 [2] was 33.7 µM.
Work on `O=C(NCc1ccc(F)cc1)c1cn(Cc2ccc(F)cc2)c2ccccc12` [N-Substituted indole-2- and 3-carboxamide derivative, 18] yielded an IC50 [1] of 56.7 µM and an IC50 [2] of 25.7 µM.
